Measurements from ChEMBL document CHEMBL1159321, “Novel acylated triterpene glycosides from Muraltia heisteria” (J Nat Prod, 2002).
Active and inactive are the calls of the source. The rule behind the calls is not given here.

Tested on: HT-29
Experiment: Cytotoxicity against human HT-29 cells at 12 to 50 ug/ml
Type: functional, cell-based

COc1cc(/C=C/C(=O)O[C@@H]2[C@H](O)[C@@H](O[C@@H]3O[C@@H](C)[C@H](O[C@@H]4OC[C@@H](O)[C@H](O[C@@H]5O[C@H](CO)[C@H](O[C@@H]6OC[C@H](O)[C@H](O)[C@H]6O)[C@H](O)[C@H]5O)[C@H]4O)[C@@H](O)[C@H]3O)[C@H](OC(=O)[C@]34CCC(C)(C)C[C@H]3C3=CC[C@@H]5[C@@]6(C)C[C@H](O)[C@H](O[C@@H]7O[C@H](CO)[C@@H](O)[C@H](O)[C@H]7O)[C@@](C)(C(=O)O)[C@@H]6CC[C@@]5(C)[C@]3(CO)CC4)O[C@@H]2C)cc(OC)c1OC
Activity: Active
